Active and inactive are the calls of the source.
Experiments:
Assay type in all cases: functional, organism-based
Mus musculus [1] = test: Suppression of lung injury in mouse model of Pseudomonas aeruginosa PA103 infection-induced lung injury assessed as reduction in lung resistance at 100 ug, ip pre-treated before infection
Mus musculus [2] = test: Suppression of lung injury in mouse model of Pseudomonas aeruginosa PA103 infection-induced lung injury assessed as reduction in lung elastance at 100 ug, ip pre-treated before infection
Mus musculus [3] = test: Suppression of lung injury in mouse model of Pseudomonas aeruginosa PA103 infection-induced lung injury assessed as increase in compliance at 100 ug, ip pre-treated before infection
Mus musculus [4] = test: Suppression of lung injury in mouse model of Pseudomonas aeruginosa PA103 infection-induced lung injury assessed as improve in lung volume at 100 ug, ip pre-treated before infection
Mus musculus [5] = test: Suppression of lung injury in mouse model of Pseudomonas aeruginosa PA103 infection-induced lung injury assessed as reduction in lavage protein concentration at 100 ug, ip pre-treated before infection
Mus musculus [6] = test: Suppression of lung injury in mouse model of Pseudomonas aeruginosa PA103 infection-induced lung injury assessed as reduction in lavage cell counts at 100 ug, ip pre-treated before infection
Mus musculus [7] = test: Suppression of lung injury in mouse model of Pseudomonas aeruginosa PA103 infection-induced lung injury assessed as reduction in lavage IL6 levels at 100 ug, ip pre-treated before infection
Mus musculus [8] = test: Suppression of lung injury in mouse model of Pseudomonas aeruginosa PA103 infection-induced lung injury assessed as reduction in cell infiltration at 100 ug, ip pre-treated before infection by H and E staining based assay
Mus musculus [9] = test: Suppression of lung injury in mouse model of influenza A virus H1N1 infection-induced lung injury assessed as increase in mouse survival at 30 ug/ml dosed via drinking water
Mus musculus [10] = test: Suppression of lung injury in mouse model of influenza A virus H1N1 infection-induced lung injury assessed as decrease in lung elastance at 30 ug/ml dosed via drinking water
Mus musculus [11] = test: Suppression of lung injury in mouse model of influenza A virus H1N1 infection-induced lung injury assessed as increase in lung compliance at 30 ug/ml dosed via drinking water
Mus musculus [12] = test: Suppression of lung injury in mouse model of influenza A virus H1N1 infection-induced lung injury assessed as decrease in lavage protein concentration at 30 ug/ml dosed via drinking water
Mus musculus [13] = test: Suppression of lung injury in mouse model of influenza A virus H1N1 infection-induced lung injury assessed as decrease in lavage cell counts at 30 ug/ml dosed via drinking water
Mus musculus [14] = test: Suppression of lung injury in mouse model of influenza A virus H1N1 infection-induced lung injury assessed as decrease in lung edema at 30 ug/ml dosed via drinking water
Mus musculus [15] = test: Suppression of lung injury in mouse model of influenza A virus H1N1 infection-induced lung injury assessed as decrease in cell infiltration at 30 ug/ml dosed via drinking water by H and E staining based assay
Mus musculus [16] = test: Suppression of lung injury in mouse model of Pseudomonas aeruginosa PA103 infection-induced lung injury assessed as reduction in lavage TNFalpha levels at 100 ug, ip pre-treated before infection
Mus musculus [17] = test: Suppression of lung injury in mouse model of Pseudomonas aeruginosa PA103 infection-induced lung injury assessed as reduction in lavage IL-1beta levels at 100 ug, ip pre-treated before infection
Mus musculus [18] = test: Suppression of lung injury in mouse model of Pseudomonas aeruginosa PA103 infection-induced pneumonia assessed as reduction in lavage cell counts at 30 or 150 ug, ip pre-treated before infection
Mus musculus [19] = test: Suppression of lung injury in mouse model of Pseudomonas aeruginosa PA103 infection-induced pneumonia assessed as reduction in lavage protein concentration at 30 or 150 ug, ip pre-treated before infection
Mus musculus [20] = test: Suppression of lung injury in mouse model of Pseudomonas aeruginosa PA103 infection-induced pneumonia assessed as reduction in lavage IL6 levels at 30 or 150 ug, ip pre-treated before infection
Mus musculus [21] = test: Suppression of lung injury in mouse model of Pseudomonas aeruginosa PA103 infection-induced pneumonia assessed as reduction in neutrophil infiltration at 30 or 150 ug, ip pre-treated before infection by May-Grunwald and Geimsa staining based assay
Mus musculus [22] = test: Suppression of lung injury in mouse model of Pseudomonas aeruginosa PA103 infection-induced pneumonia assessed as reduction in cell infiltration at 30 or 150 ug, ip pre-treated before infection by H and E staining based assay
Mus musculus [23] = test: Suppression of smoke-induced chronic lung inflammation in mouse assessed as reduction in lavage cell counts at 100 ug, ip administered as single dose injected after 5 weeks cigarette smoke exposure
Mus musculus [24] = test: Suppression of smoke-induced chronic lung inflammation in mouse assessed as reduction in lavage protein concentration at 100 ug, ip administered as single dose injected after 5 weeks cigarette smoke exposure
Mus musculus [25] = test: Suppression of smoke-induced chronic lung inflammation in mouse assessed as reduction in lavage IL12 levels at 100 ug, ip administered as single dose injected after 5 weeks cigarette smoke exposure
Mus musculus [26] = test: Suppression of IMQ-induced psoriasis in BALB/c mouse model of skin inflammation assessed as reduction in spleen weight at 1 or 5 mg/kg applied topically on daily basis
Mus musculus [27] = test: Suppression of IMQ-induced psoriasis in BALB/c mouse model of skin inflammation assessed as reduction in ear thickness at 1 or 5 mg/kg applied topically on daily basis
Mus musculus [28] = test: Suppression of IMQ-induced psoriasis in BALB/c mouse model of skin inflammation assessed as reduction in psoriasis index at 1 or 5 mg/kg applied topically on daily basis
Mus musculus [29] = test: Suppression of IMQ-induced psoriasis in BALB/c mouse model of skin inflammation assessed as effect on gross appearance at 1 or 5 mg/kg applied topically on daily basis
Mus musculus [30] = test: Suppression of IMQ-induced psoriasis in BALB/c mouse model of skin inflammation assessed as reduction in spleen weight at 1 or 5 mg/kg dosed via drinking water on daily basis
Mus musculus [31] = test: Suppression of IMQ-induced psoriasis in BALB/c mouse model of skin inflammation assessed as reduction in ear thickness at 1 or 5 mg/kg dosed via drinking water on daily basis
Mus musculus [32] = test: Suppression of IMQ-induced psoriasis in BALB/c mouse model of skin inflammation assessed as reduction in psoriasis index at 1 or 5 mg/kg dosed via drinking water on daily basis
Mus musculus [33] = test: Suppression of IMQ-induced psoriasis in BALB/c mouse model of skin inflammation assessed as effect on gross appearance at 1 or 5 mg/kg dosed via drinking water on daily basis
Mus musculus [34] = test: Suppression of dexamethasone-induced muscle atrophy in C57BL mouse assessed as reduction in TRAF6 protein in TA muscle at 0.5 to 5 mg/kg/day dosed via drinking water by immunoblotting analysis
Mus musculus [35] = test: Suppression of dexamethasone-induced muscle atrophy in C57BL mouse assessed as reduction in tibialis anterior muscle loss at 0.5 to 5 mg/kg/day dosed via drinking water
Mus musculus [36] = test: Suppression of dexamethasone-induced muscle atrophy in C57BL mouse assessed as prevention of muscle wasting in TA muscle at 0.5 to 5 mg/kg/day dosed via drinking water by H and E staining based assay
Mus musculus [37] = test: Antiinflammatory activity in C57/BL mouse model of lung transplant acute rejection transplanted with BALB/C mouse left lung assessed as reduction in cell infiltration in lung at 5 mg/kg/day, ip for 2 days followed by dosing at 5 mg/kg/day via drinking water for 5 days
Mus musculus [38] = test: Antiinflammatory activity in C57/BL mouse model of lung transplant acute rejection transplanted with BALB/C mouse left lung assessed as amelioration of neutrophilia infiltration at 5 mg/kg/day, ip for 2 days followed by dosing at 5 mg/kg/day via drinking water for 5 days
Mus musculus [39] = test: Suppression of lung injury in mouse model of Pseudomonas aeruginosa PA103 infection-induced pneumonia assessed as reduction in lavage TNFalpha levels at 30 or 150 ug, ip pre-treated before infection
Mus musculus [40] = test: Suppression of lung injury in mouse model of Pseudomonas aeruginosa PA103 infection-induced pneumonia assessed as reduction in lavage IL-1beta levels at 30 or 150 ug, ip pre-treated before infection
Mus musculus [41] = test: Suppression of smoke-induced chronic lung inflammation in mouse assessed as reduction in lavage IL-1beta levels at 100 ug, ip administered as single dose injected after 5 weeks cigarette smoke exposure
Mus musculus [42] = test: Suppression of smoke-induced chronic lung inflammation in mouse assessed as reduction in lavage IL10 levels at 100 ug, ip administered as single dose injected after 5 weeks cigarette smoke exposure
Mus musculus [43] = test: Suppression of smoke-induced chronic lung inflammation in mouse assessed as reduction in lavage TNFalpha levels at 100 ug, ip administered as single dose injected after 5 weeks cigarette smoke exposure
Mus musculus [44] = test: Suppression of smoke-induced chronic lung inflammation in mouse assessed as reduction in lavage IL2 levels at 100 ug, ip administered as single dose injected after 5 weeks cigarette smoke exposure
Mus musculus [45] = test: Suppression of smoke-induced chronic lung inflammation in mouse assessed as reduction in lavage IL6 levels at 100 ug, ip administered as single dose injected after 5 weeks cigarette smoke exposure
Mus musculus [46] = test: Suppression of smoke-induced chronic lung inflammation in mouse assessed as reduction in lavage IFNgamma levels at 100 ug, ip administered as single dose injected after 5 weeks cigarette smoke exposure

Measured: Activity

c1ccc(-c2ccc(CNCCNCc3ccc(-c4ccccn4)cc3)cc2)nc1
active: Mus musculus [1] | Mus musculus [2] | Mus musculus [3] | Mus musculus [4] | Mus musculus [5] | Mus musculus [6] | Mus musculus [7] | Mus musculus [8] | Mus musculus [9] | Mus musculus [10] | Mus musculus [11] | Mus musculus [12] | Mus musculus [13] | Mus musculus [14] | Mus musculus [15] | Mus musculus [16] | Mus musculus [17]

c1cnc(-c2ccc(CNCCNCc3ccc(-c4ncccn4)cc3)cc2)nc1
not listed: Mus musculus [1] | Mus musculus [2] | Mus musculus [3] | Mus musculus [4] | Mus musculus [5] | Mus musculus [6] | Mus musculus [7] | Mus musculus [8] | Mus musculus [9] | Mus musculus [10] | Mus musculus [11] | Mus musculus [12] | Mus musculus [13] | Mus musculus [14] | Mus musculus [15] | Mus musculus [16] | Mus musculus [17]
active: all other assays above

— ChEMBL document CHEMBL4419167, “Compositions and methods for treating respiratory injury or disease” (2018)
